Patent publication US20260138981A1, “DIHYDROFOLATE REDUCTASE INHIBITORS FOR ANTI-BIOTIC RESISTANT INFECTIONS” (THE TRUSTEES OF PRINCETON UNIVERSITY, priority 2022, published 2026)

Key:
[1] = test system: E. coli lptD4213; assay: Membrane potential and permeability, TO-PRO-3 and DiOC2(3) flow cytometry; type: cell-based; conditions: E. coli lptD4213, 2×MIC
Experimental: FIG. 5B provides flow cytometry of E. coli lptD4213 treated with 5% DMSO, 5 μM CCCP, or 2×MIC fluorofolin 0.04 μg/mL polymixin B, and 0.4 μg/mL trimethoprim and stained with TO-PRO-3 and DiOC2(3).
The ability of fluorofolin to permeabilize P. aeruginosa PA14 was examined. Specifically, flow cytometry of P. aeruginosa stained with TO-PRO-3 was used, treated the bacteria with 2×MIC, and analyzed membrane integrity. […] It was hypothesized that this decrease in membrane targeting might also decrease toxicity due to the disruption of eukaryotic membranes.
Overnight P. aeruginosa PA14 or E. coli lptD4213 cultures were diluted 1:100 and grown to mid exponential phase at 37° C. Cultures were diluted 1:10 into PBS and treated with antibiotics for 15 minutes. P. aeruginosa PA14 was stained with TO-PRO-3 (640 nm excitation, 670/30 nm emission) to measure cell membrane integrity. […] DiOC2(3) was evaluated as a ratio of green (488 nm excitation, 525/50 nm emission) to red (488 nm excitation, 610/20 nm emission) (Novo et al., 1999). […] 100,000 events were recorded for each data file. Gates for permeabilization were determined using Polymixin B (Sigma-Aldrich P1004) and untreated controls. Gates for depolarization were determined using CCCP as a positive control. Data was analyzed using FlowJo v10 software (FlowJo LLC, Ashland, OR).

[2] = test system: P. aeruginosa PA14; assay: Drug accumulation assay (intrabacterial drug metabolism, LC/MS); type: cell-based; conditions: PA14, 5 μM, compared with TMP
Experimental: FIG. 1G provides intrabacterial drug metabolism (IBDM) of PA14 treated with 5 μM fluorofolin or trimethoprim. Samples were taken at time t=0, 30, 60, and 90 minutes. Data represent mean±SD of triplicate technical replicates.
FIG. 1H provides cumulative accumulation of drugs over 90 mins by AUC of IBDM curves. Data represent mean±SD of triplicate technical replicates. (P value≤0.0001) t-test using Prism 9.
Overnight PA14 cultures were back-diluted to early-mid exponential phase (OD600=0.4-0.6). The assay was initiated with treatment of the culture with either 5.0 μM fluorofolin or 5.0 μM trimethoprim. A DMSO treated culture was utilized as a control. […] The resulting cell lysate samples were analyzed utilizing verapamil as an internal standard. […]
Compound accumulation was realized using the selective ion monitoring (SIM) mode to quantify peak integration for a compound and the internal standard using their respective m/z values. Compound peaks were confirmed using a scanning mode that detected the compound peak using an m/z range of 100-1000. Peak area integration values were determined and a ratio of the peak area for the compound to the peak area for the verapamil internal standard was calculated and compound concentration was then determined from the compound calibration curve. […]

[3] = Pharmacokinetic analysis after single oral dose; type: in vivo, mouse; conditions: single dose 200 mg/kg PO, CD-1 mice
Experimental: FIG. 2A quantifies plasma concentration of fluorofolin over time after single oral administration to neutropenic CD1 mice. Each line is representative of an individual mouse.
Pharmacokinetics determination: Care and handling of male CD-1 mice approximately 6-8 weeks old conformed to institutional animal care and use policies as carried out at Pharmaron, Inc. (Beijing, ROC).
Pharmacokinetic properties were determined after a single dose of 200 mg/kg fluorofolin given PO. Plasma samples were taken from three mice at times 0.083, 0.25, 0.5, 1, 2, 4, 8, and 24 hours and quantitative analysis was performed using LC/MS/MS. Half-life was determined from plasma concentration after fluorofolin levels reached pseudo-equilibrium (4 hours for mouse 1 and 2, and 2 hours for mouse 3). Pharmacokinetic values were estimated using a non-compartmental model generated from WinNonlin 6.1. Pharmacokinetic analysis was carried out by Pharmaron, Inc. (Beijing, ROC).

[4] = test system: sheep red blood cells
Experimental: Percent hemolysis was measured using Abs405 compared to 100% lysis control by Triton X-100 (1% v/v). Mean±SD of technical triplicates are shown.
Samples were treated at 37° C. with shaking for 1 hour and then centrifuged. Supernatants were collected and absorbances were measured at 405 nm in a Tecan InfiniteM200 Pro (Männedorf, CH) microplate reader. Percentage hemolysis was calculated compared to 100% lysis by Triton X-100 (1% v/v) (Sigma-Aldrich X100RS).

Nc1nc(N)c2c(ccc3c2ccn3Cc2ccnc(F)c2)n1 [fluorofolin]
membrane depolarization or permeabilization [1]: does not cause membrane depolarization or permeabilization | rate of accumulation in P. aeruginosa ([2]; 0-90 min): more rapidly | cumulative accumulation (AUC of IBDM curves) ([2]; over 90 mins): higher levels | half-life [3]: 12.1 h | peak concentration (plasma) [3]: 4.0 µg/mL | permeabilization of red blood cell membranes (hemolysis) [4]: did not cause significant permeabilization
